Results reported in patent US12350273B2, “Treatment of SMA” (Hoffmann-La Roche Inc., priority 2017, dated 2025).

What was measured:
SMN protein = SMN protein (HTRF) in brain and quadriceps muscle of C/C-allele mice; type: in vivo
Procedure: FIG. 1A-FIG. 1D: Increase in SMN Protein Expression In Vivo • HET=heterogygous. • C/C-allele mice and SMNΔ7 mice were treated with RO7034067. One hour after the last dose, brains and quadriceps muscles were collected and levels of SMN protein were assessed by HTRF. FIG. 1A. SMN protein in brains of C/C-allele mice. FIG. 1B. SMN protein in brains of SMNΔ7 mice. FIG. 1C. SMN protein in quadriceps muscle of C/C-allele mice. FIG. 1D. SMN protein in quadriceps muscle of SMNΔ7 mice. Data represent means±SEM of 5-6 animals per group and are expressed as fold change vs. vehicle-treated controls. *=p<0.05, **=p<0.01, ***=p<0.001 vs. untreated controls.
Adult C/C-allele mice were treated for 10 days with vehicle or RO7034067 (1, 3 or 10 mg/kg per os [PO], daily), and PND3 SMNΔ7 mice were treated for 7 days with vehicle or RO7034067 (0.1, 0.3, 1 or 3 mg/kg intraperitoneal [IP], daily). […] In SMNΔ7 mice, the SMN protein increase was only partial in both brain and muscle, reaching approximately 43% (brain) and 55% (muscle) of protein levels in heterozygous mice.

FoxM1 = test: Alternative splicing of FoxM1 in SMA Type 1 patient fibroblasts (RT-qPCR); type: cell-based; settings: Homo sapiens, Fibroblast, 24 hours, read-out: EC50 for FoxM1 full-length (FL) mRNA
Procedure: FIG. 4: Alternative Splicing of FoxM1 In Vitro • SMA Type 1 patient fibroblasts were treated with RO7034067 for 24 hours, and FoxM1 full-length (FL) and exon 9-lacking (Δ9) mRNAs were analyzed by RT-qPCR. Data represent means±SEM of 6 repetitions and are expressed as fold change vs. untreated controls.
FoxM1, a gene alternatively spliced by other splicing modifier compounds, encodes a cell cycle regulator. […] Increased abundance of the FoxM1A isoform, together with decreased abundance of FoxM1 isoforms lacking exon 9, has the capability to disturb and inhibit cell cycle progression if splicing changes are at a level that is biologically significant. Thus, RO7034067 acts in a similar way on the SMN2 and FoxM1 splicing machinery, but with opposing outcomes with regard to protein function. MADD, a gene involved in apoptosis processes, has also been identified as a secondary splice target.

[1] = Stability of test item formulations; type: physicochemical; settings: formulations 0.025 to 5 mg/mL, 2 to 8° C., absence of oxygen (under nitrogen)
Procedure: The test item was formulated as a solution in 10 mM ascorbic acid/0.0064 mg/mL sodium thiosulfate at pH 3. The formulations were stored at 2 to 8° C. with absence of oxygen (under nitrogen), protected from the light in a sealed container. They were allowed to reach room temperature prior to dosing and were stirred on arrival at the animal room and then continuously throughout dosing.

retina = settings: monkey, in vivo
Text: Over the in-life duration of the 39-week monkey toxicity study with RO7034067, the low dose remained free of any test-item related changes in sdOCT and ERG until the last week of assessment (week 35).

human iPSCs = test: Cell cycle analysis of human iPSCs (flow cytometry); type: cell-based; settings: for percentage of events in G1 phase, mean / percentage of events in G2 phase, mean / percentage of events in S phase, mean: 24 h
Procedure: For the analysis of the cell cycle, monkey stem cells were detached with Accutase (Stem Cell Technologies) and plated at 15000 cells/cm2 in 6 well plates coated with Matrigel (BD Biosciences) in MT medium supplemented with 10 ng/ml ActivinA, 15 ng/ml FGF2, and 10 μM Rock inhibitor. Cells were expanded for 1 day and then synchronized by starvation for 7 h in MT medium without supplements FGF2 and ActivinA. Before flow cytometry, cells were incubated for 24 h with fresh MT medium containing supplements FGF2 and ActivinA and test items at 80 nM, 400 nM, and 2000 nM or 30 nM rapamycin as positive control to arrest cells in G1 phase. Human stem cells were detached with Accutase (Stem Cell Technologies) and plated at 40000 cells/cm2 in 6 well plates coated with Matrigel (BD Biosciences) in mTeSR1 supplemented with 10 μM Rock Inhibitor Y-27632 (Sigma-Aldrich). Cells were expanded for 3 days with daily medium change. Since human iPSCs lose their properties during starvation by growth factor withdrawal, stem cells were synchronized with 200 ng/ml Nocodazole (Sigma-Aldrich) for 5 h and washed subsequently 2 times with mTesR1 Medium. Before flow cytometry, cells were incubated for 24 h with fresh TesR1 medium containing test items at 80 nM, 400 nM, and 2000 nM or 30 nM rapamycin as positive control to arrest cells in G1 phase.
For cell cycle analysis, human iPSCs were washed with PBS, detached with Accutase (Stem Cell Technologies) and collected by centrifugation. Cells were stained for 1 h at 37° C. with 600 ul of 7 AAD/Saponin/RNAse mix ([…] 7 AAD (#559925, BD), 50 μg/ml RNase, and 0.03% Saponin dissolved in FACS buffer (PBS, 5% FBS, 10 mM Hepes)). Cynomolgus monkey iPSCs were washed with PBS, detached with Accutase (Stem Cell Technologies) and collected by centrifugation. Cells were stained for 30 min at 37° C. in 300 ul standard MT medium (with FGF2 and ActivinA) containing 1 ul Vybrant Dye Cycle Violet Stain (#V35003, 1000× stock, Invitrogen) per ml medium. Additionally 2 ul 7 AAD (50 μg/ml 7 AAD) were added without permeabilization to label dead cells; cells were incubated for 10 min at 37° C. Flow cytometry analysis was performed using a Canto II cytometer (BD Biosciences) and data were analysed with the FlowJo software.

## Cc1cn2nc(-c3cc(=O)n4cc(N5CCNC6(CC6)C5)ccc4n3)cc(C)c2n1 [RO7034067, 7-(4,7-diazaspiro[2.5]octan-7-yl)-2-(2,8-dimethylimidazo[1,2-b]pyridazin-6-yl)pyrido[1,2-a]pyrimidin-4-one]
SMN protein; C/C-allele mice, 10 mg/kg
  SMN levels in muscle compared with heterozygous mice: no different from those in heterozygous mice
SMN protein; adult C/C-allele mice, 10 mg/kg PO daily, 10 days
  SMN protein levels in brain and muscle tissue, maximum effect: 2-3 fold
FoxM1
  EC50: 67 ± 32 nM
[1]
  time formulations were stable: up to 4 weeks
retina
  individual AUC0-24h exposures without retina changes: up to 15,100 ng·h/mL
Human iPSCs; 80 nM
  percentage of events in G1 phase, mean: 44.6%
  percentage of events in G2 phase, mean: 29.2%
  percentage of events in S phase, mean: 26.2%
Human iPSCs; 400 nM
  percentage of events in G1 phase, mean: 40.8%
  percentage of events in G2 phase, mean: 31.4%
  percentage of events in S phase, mean: 27.8%
Human iPSCs; 2000 nM
  percentage of events in G1 phase, mean: 37.6%
  percentage of events in G2 phase, mean: 29.3%
  percentage of events in S phase, mean: 33.1%
Human iPSCs; concentration-dependent
  effect on cell cycle: cell cycle arrest in S phase
